Among the data in patent publication US9896418B2, “Aryl ethers and uses thereof” (Peloton Therapeutics, Inc., priority 2013, dated 2018) are IC50 values, retold here.

Structures are written as SMILES.

This test deals with HIF-2α HIS TAG-PASB Domain. Nature of the test: HIF-2α Scintillation Proximity Assay (SPA). In kind it is binding. The method, then:
The percent inhibition was determined and IC50 values were calculated using the Dotmatics system based on the following equation: % inhibition=[(high control−sample)/(high control−low control)]×100.

In general, IC50 refers to the concentration needed to halve the response being measured. Low readings indicate greater potency, high ones weaker potency. With `N#Cc1cc(F)cc(Oc2ccc(S(=O)(=O)C(F)(F)F)c3c2[C@@H](N)C[C@H]3O)c1` (relative stereo) [Compound 279, 3-((cis-3-amino-1-hydroxy-7-((trifluoromethyl)sulfonyl)-2,3-dihydro-1H-inden-4-yl)oxy)-5-fluorobenzonitrile], inhibition was half-maximal at 5100 nM (IC50).

For `CS(=O)(=NC#N)c1ccc(Oc2cncc(C#N)c2)c2c1[C@H](O)C(F)(F)[C@@H]2F` (single isomer, unassigned) [Compound 319], the IC50 came to 14 nM. In turn, `CS(=O)(=NC#N)c1ccc(Oc2cncc(C#N)c2)c2c1[C@H](O)C(F)(F)[C@@H]2F` (single isomer, unassigned) [Compound 321] showed an IC50 of 32 nM. This IC50 lies about 2.3-fold higher than the previous one. In turn, `N#Cc1cc(F)cc(Oc2ccc(S(=N)(=O)CF)c3c2CC(F)(F)[C@H]3O)c1` (single isomer, unassigned) [Example 274] showed a half-inhibitory concentration (IC50) of 94 nM. On to `N#CN=S(=O)(CF)c1ccc(Oc2cc(F)cc(C#N)c2)c2c1[C@H](O)C(F)(F)C2` (single isomer, unassigned) [Example 285], for which the midpoint of inhibition, the IC50, lay at 71 nM. The IC50 values of the last two compounds are within 1.5-fold of each other. The compound `CS(=O)(=NC#N)c1ccc(Oc2cc(F)cc(C#N)c2)c2c1[C@H](O)C(F)(F)[C@@H]2F` (single isomer, unassigned) [Example 316] displayed an IC50 below 5 nM.

As to `O=S(=O)(c1ccc(Oc2cc(F)cc(F)c2)c2c1[C@H](O)CC2)C(F)F` [Compound 2, (R)-7-((Difluoromethyl)sulfonyl)-4-(3,5-difluorophenoxy)-2,3-dihydro-1H-inden-1-ol], the IC50 was below 5 nM. Compound `O=S(=O)(c1ccc(Oc2cncc(Cl)c2)c2c1[C@H](O)CC2)C(F)F` [Compound 3, (R)-4-((5-chloropyridin-3-yl)oxy)-7-((difluoromethyl)sulfonyl)-2,3-dihydro-1H-inden-1-ol] displayed an IC50 of 340 nM. `N#Cc1cncc(Oc2ccc(S(=O)(=O)C(F)F)c3c2CC[C@H]3O)c1` [Compound 4, (R)-5-((7-((Difluoromethyl)sulfonyl)-1-hydroxy-2,3-dihydro-1H-inden-4-yl)oxy)nicotinonitrile] showed an IC50 of 3300 nM. This IC50 is about 9.7-fold higher than that of the compound before. The same measure for `O=S(=O)(c1ccc(Oc2cncc(F)c2)c2c1[C@H](O)CC2)C(F)F` [Compound 5, (R)-7-((difluoromethyl)sulfonyl)-4-((5-fluoropyridin-3-yl)oxy)-2,3-dihydro-1H-inden-1-ol]: 900 nM; for `O=S(=O)(c1ccc(Oc2cc(F)cc(Cl)c2)c2c1C(O)C(F)(F)C2)C(F)F` (centres unmarked) [Compound 8, 4-(3-chloro-5-fluoro-phenoxy)-7-(difluoromethylsulfonyl)-2,2-difluoro-indan-1-ol]: below 5 nM; for `O=S(=O)(c1ccc(Oc2cc(F)cc(F)c2)c2c1C(O)C(F)(F)C2)C(F)F` (centres unmarked) [Compound 9, 7-(difluoromethylsulfonyl)-4-(3,5-difluorophenoxy)-2,2-difluoro-indan-1-ol]: below 5 nM.

`C=CCC1(O)c2c(S(=O)(=O)C(F)F)ccc(Oc3cc(F)cc(F)c3)c2CC1(F)F` (centres unmarked) [Compound 12, 1-allyl-7-(difluoromethylsulfonyl)-4-(3,5-difluorophenoxy)-2,2-difluoro-indan-1-ol] registered an IC50 of 9800 nM. `CC1(O)c2c(S(=O)(=O)C(F)F)ccc(Oc3cc(F)cc(C#N)c3)c2CC1(F)F` (centres unmarked) [Compound 13, 3-[7-(difluoromethylsulfonyl)-2,2-difluoro-1-hydroxy-1-methyl-indan-4-yl]oxy-5-fluoro-benzonitrile] gave an IC50 of 6600 nM. This IC50 and that of the compound before are within 1.5-fold of each other. `N#CCS(=O)(=O)c1ccc(Oc2cc(F)cc(F)c2)c2c1C(O)CC2` (centres unmarked) [Compound 14, 2-[7-(3,5-difluorophenoxy)-3-hydroxy-indan-4-yl]sulfonylacetonitrile]: 5200 nM corresponded to half-maximal inhibition (IC50). This IC50 and that of the compound before are within 1.5-fold of each other.

With `O=C1CCc2c(Oc3cc(F)cc(Cl)c3)ccc(S(=O)(=O)C(F)F)c21` [Compound 18, 4-(3-chloro-5-fluorophenoxy)-7-((difluoromethyl)sulfonyl)-2,3-dihydro-1H-inden-1-one], the IC50 amounted to 120 nM. This IC50 is about 43-fold lower than that of the compound before. The same measure for `NC1CCc2c(Oc3cc(F)cc(F)c3)ccc(S(=O)(=O)C(F)F)c21` (centres unmarked) [Compound 19, 7-((difluoromethyl)sulfonyl)-4-(3,5-difluorophenoxy)-2,3-dihydro-1H-inden-1-amine]: 38000 nM. The compound `O=S(=O)(c1ccc(Oc2cc(F)cc(F)c2)c2c1CCC2)C(F)F` [Compound 20, 4-((Difluoromethyl)sulfonyl)-7-(3,5-difluorophenoxy)-2,3-dihydro-1H-indene] gave an IC50 of 1100 nM.

For `O=S(=O)(c1ccc(Oc2cc(F)cc(F)c2)c2c1C=CC2)C(F)F` [Compound 21, 4-((Difluoromethyl)sulfonyl)-7-(3,5-difluorophenoxy)-1H-indene], the IC50 stood at 140 nM. As to `O=S(=O)(c1ccc(Oc2cc(F)cc(F)c2)c2c1C(CO)CC2)C(F)F` (centres unmarked) [Compound 24, (7-((Difluoromethyl)sulfonyl)-4-(3,5-difluorophenoxy)-2,3-dihydro-1H-inden-1-yl)methanol], 920 nM corresponded to half-maximal inhibition (IC50). With `N#Cc1c(Oc2cc(F)cc(Cl)c2)ccc(S(=O)(=O)C(F)(F)F)c1Cl` [Compound 28, 2-Chloro-6-(3-chloro-5-fluorophenoxy)-3-((trifluoromethyl)sulfonyl)benzonitrile], it took 49900 nM to reach half-maximal inhibition (IC50). For `N#Cc1cc(F)cc(Oc2ccc(S(=O)(=O)C(F)(F)F)c(Cl)c2C#N)c1` [Compound 29, 2-Chloro-6-(3-cyano-5-fluorophenoxy)-3-((trifluoromethyl)sulfonyl)benzonitrile], the IC50 is 22 nM. Compared with the last compound, the IC50 is about 2300-fold lower. The compound `Cc1c(S(=O)(=O)C(F)F)ccc(Oc2cc(F)cc(Cl)c2)c1C#N` [Compound 32, 6-(3-Chloro-5-fluorophenoxy)-3-((difluoromethyl)sulfonyl)-2-methylbenzonitrile] returned an IC50 of 18 nM.

In turn, `Cc1c(S(=O)(=O)C(F)F)ccc(Oc2cc(F)cc(C#N)c2)c1C#N` [Compound 33, 6-(3-Cyano-5-fluorophenoxy)-3-((difluoromethyl)sulfonyl)-2-methylbenzonitrile] returned an IC50 of 157 nM. In turn, `Cc1c(S(=O)(=O)C(F)F)ccc(Oc2cc(F)cc(F)c2)c1C#N` [Compound 34, 3-((Difluoromethyl)sulfonyl)-6-(3,5-difluorophenoxy)-2-methylbenzonitrile] registered an IC50 below 5 nM. In the case of `CN(C)Cc1c(S(=O)(=O)C(F)F)ccc(Oc2cc(F)cc(Cl)c2)c1C#N` [Compound 36, 6-(3-Chloro-5-fluorophenoxy)-3-((difluoromethyl)sulfonyl)-2-((dimethylamino)methyl)benzonitrile], the IC50 is 17000 nM. The compound `Cc1c([S+]([O-])C(F)F)ccc(Oc2cc(F)cc(Cl)c2)c1C#N` (centres unmarked) [Compound 37, 6-(3-Chloro-5-fluorophenoxy)-3-((difluoromethyl)sulfinyl)-2-methylbenzonitrile] had an IC50 of 6700 nM. Compared with the last compound, the IC50 is about 2.5-fold lower. The result for `O=S(=O)(c1ccc(Oc2cc(F)cc(Cl)c2)c(Cl)c1Cn1ccnc1)C(F)F` [Compound 45, 1-(2-Chloro-3-(3-chloro-5-fluorophenoxy)-6-((difluoromethyl)sulfonyl)benzyl)-1H-imidazole] reads 6100 nM; that for `O=S(=O)(c1ccc(Oc2cc(F)cc(Cl)c2)c(Cl)c1CNCC(F)(F)F)C(F)F` [Compound 47, N-(2-Chloro-3-(3-chloro-5-fluorophenoxy)-6-((difluoromethyl)sulfonyl)benzyl)-2,2,2-trifluoroethan-1-amine], 9000 nM; that for `O=S(=O)(c1ccc(Oc2cc(F)cc(Cl)c2)c(Cl)c1CNC1CCOCC1)C(F)F` [Compound 48, N-(2-Chloro-3-(3-chloro-5-fluorophenoxy)-6-((difluoromethyl)sulfonyl)benzyl)tetrahydro-2H-pyran-4-amine], 920 nM.

`O=S(=O)(c1ccc(Oc2cc(F)cc(Cl)c2)c(Cl)c1CNC1CCCOC1)C(F)F` (centres unmarked) [Compound 49, N-(2-Chloro-3-(3-chloro-5-fluorophenoxy)-6-((difluoromethyl)sulfonyl)benzyl)tetrahydro-2H-pyran-3-amine] registered an IC50 of 13000 nM. Compared with the last compound, the IC50 is about 14-fold higher. In turn, `Cc1c(S(C)(=O)=O)ccc(Oc2cc(F)cc(C#N)c2)c1C#N` [Compound 51, 6-(3-Cyano-5-fluorophenoxy)-2-methyl-3-(methylsulfonyl)benzonitrile] had a concentration for half-maximal inhibition (IC50) of 2000 nM.

Regarding `Cc1c(S(C)(=O)=O)ccc(Oc2cc(F)cc(F)c2)c1C#N` [Compound 52, 6-(3,5-Difluorophenoxy)-2-methyl-3-(methylsulfonyl)benzonitrile], inhibition was half-maximal at 46 nM (IC50). Compared with the last compound, the IC50 is about 43-fold lower. In turn, `Cc1c(S(C)(=O)=O)ccc(Oc2cc(F)cc(Cl)c2)c1C(F)F` [Compound 53, 1-(3-Chloro-5-fluorophenoxy)-2-(difluoromethyl)-3-methyl-4-(methylsulfonyl)benzene] showed an IC50 of 330 nM. The same measure for `N#Cc1ccc(Oc2cc(F)cc(F)c2)c2c1[C@H](O)CC2` [Compound 66, (R)-7-(3,5-Difluorophenoxy)-3-hydroxy-2,3-dihydro-1H-indene-4-carbonitrile]: 5000 nM; for `CS(=O)(=NC#N)c1ccc(Oc2cc(F)cc(C#N)c2)c2c1C(O)CC2` (centres unmarked) [Compound 68]: 3100 nM; for `N=S(=O)(c1ccc(Oc2cc(F)cc(Cl)c2)c(Br)c1)C(F)F` (centres unmarked) [Compound 69, 2-bromo-1-(3-chloro-5-fluorophenoxy)-4-((difluoromethyl)sulfonimidoyl)benzene]: 1300 nM. In the case of `CN=S(=O)(c1ccc(Oc2cc(F)cc(Cl)c2)c(Br)c1)C(F)F` (stereo not drawn) [Compound 70, N-methyl-2-bromo-1-(3-chloro-5-fluorophenoxy)-4-(S-(difluoromethyl)sulfonimidoyl)benzene], the IC50 amounted to 770 nM.

As to `N=S(=O)(c1ccc(Oc2cc(F)cc(Cl)c2)c(Br)c1)C(F)(F)F` (centres unmarked) [Compound 71, 2-bromo-1-(3-chloro-5-fluorophenoxy)-4-((trifluoromethyl)sulfonimidoyl)benzene], the IC50 turned out to be 640 nM. Compound `N#Cc1cc(S(=N)(=O)C(F)(F)F)ccc1Oc1cc(F)cc(Cl)c1` (centres unmarked) [Compound 72, 2-(3-chloro-5-fluorophenoxy)-5-((trifluoromethyl)sulfonimidoyl)benzonitrile] came in with an IC50 of 510 nM. The same measure for `N#Cc1cc(F)cc(Oc2ccc(S(=N)(=O)C(F)(F)F)cc2C#N)c1` (centres unmarked) [Compound 73, 2-(3-cyano-5-fluorophenoxy)-5-((trifluoromethyl)sulfonimidoyl)benzonitrile]: 1400 nM.
